Laboratory results published in PubChem BioAssay (NCI).
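Cultured in 96-well plates, cells were exposed to test compound for 48 hours across five concentrations. TGI denotes the concentration required for complete inhibition of growth.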

Tests used:
Test in all cases: NCI tumour cell line growth inhibition, 48 h
[1] = tested on: DLD-1 colon
[2] = tested on: DMS 114 small cell lung
[3] = tested on: DMS 273 small cell lung
[4] = tested on: HOP-18 NSCLC
[5] = tested on: KM20L2 colon
[6] = tested on: SNB-78 CNS
[7] = tested on: XF 498 CNS
[8] = tested on: RXF-631 renal
[9] = tested on: P388 leukemia
[10] = tested on: P388/ADR leukemia
[11] = tested on: SN12K1 renal

Row | Compound | TGI [1] | TGI [2] | TGI [3] | TGI [4] | TGI [5] | TGI [6] | TGI [7] | TGI [8] | TGI [9] | TGI [10] | TGI [11]
1 | Cc1cc(C)c(N)c(C)c1N | > 100 µM | > 100 µM | > 100 µM | > 100 µM | > 100 µM | > 100 µM |  |  |  |  | 
2 | O=C(NN1C(=O)C(Cl)C1c1ccc([N+](=O)[O-])cc1)c1ccccc1O (stereo unspecified) |  | > 100 µM |  |  | > 100 µM |  | > 100 µM |  |  |  | 
3 | Nc1nc(SCc2ccccc2[N+](=O)[O-])c2[nH]cnc2n1 | > 100 µM |  | > 100 µM |  | > 100 µM | > 100 µM |  |  |  |  | 
4 | CCOC(=O)C1CCn2c(nc3c(=O)n(C)c(=O)n(C)c32)S1 (stereo unspecified) | > 100 µM |  | > 100 µM | > 100 µM | > 100 µM | > 100 µM |  | > 100 µM |  |  | 
5 | CC1=NN(C(=O)c2ccccc2)C(=O)C1N=Nc1ccccc1C(=O)O (stereo unspecified) | > 100 µM | > 100 µM | > 100 µM | > 100 µM | > 100 µM |  | 69.9 µM |  | > 46.3 µM | > 44.7 µM | > 100 µM
6 | COc1cc(C2c3cc4c(cc3[C@@H](Nc3ccc(N5CCOCC5)cc3)C3COC(=O)[C@H]23)OCO4)cc(OC)c1O (stereo partly specified) | 4.12 µM |  | 1.85 µM | 6.67 µM | 3.91 µM |  | 4.23 µM |  | 1.01 µM | 1.07 µM | 3.6 µM
7 | Cn1nc2ccc3nccc(NCCNCCCl)c3c2n1 | > 100 µM | > 100 µM | > 100 µM |  | > 100 µM |  | > 100 µM |  |  |  | 
8 | N/C(=N\N=C/c1cc(Cl)cc(Cl)c1O)NO | > 100 µM |  | 11.9 µM | > 100 µM | 30.2 µM | > 100 µM | 6.45 µM |  | 1.49 µM |  | 6.93 µM
9 | COc1ccc2c(c1)Cc1c-2[nH]c2cc3c(cc2c1=O)OCO3 | 41.7 µM | 17.9 µM | 24.7 µM | 58.2 µM | 35 µM | > 100 µM | 38.3 µM |  |  |  | 
10 | CC[S+](C)c1ccc(-c2c3nc(c(-c4ccc([S+](C)CC)cc4)c4ccc([nH]4)c(-c4ccc([S+](C)CC)cc4)c4nc(c(-c5ccc([S+](C)CC)cc5)c5ccc2[nH]5)C=C4)C=C3)cc1 (stereo unspecified) |  |  | > 100 µM |  | > 100 µM | > 100 µM | 8.31 µM |  |  |  | 
11 | CCOC(=O)CC(=Nc1cc(C)on1)N(CC)CC | > 100 µM | > 100 µM | > 100 µM |  | > 100 µM | > 100 µM | > 100 µM |  |  |  | 
